Laboratory results from article PMC6895199, “A new antiviral scaffold for human norovirus identified with computer-aided approaches on the viral polymerase” (Scientific Reports, 2019).

Columns and labels:
[1] = Cytotoxicity by the MTS method on uninfected cells; assay type: cell-based; conditions: mouse, uninfected RAW 264.7 cells
Method: Cytotoxicity: The cytotoxicity of the Compounds was evaluated by the MTS method, by exposing uninfected cells to the same concentrations of compounds for 3 days. The %cell viability was calculated as (ODtreated/ODCC) × 100, where ODCC is the OD of uninfected untreated cells and ODtreated are uninfected cells treated with compound. The CC50 was defined as the compound concentration that reduces the number of viable cells by 50%[34].

MNV = MNV CPE reduction assay (MTS) in RAW 264.7 cells; assay type: cell-based, mouse norovirus (MNV-1.CW1); conditions: Norovirus, RAW264.7, in Mus musculus
Method: The newly prepared compounds 2–7 and 34–35 were evaluated for their antiviral effect against the genogroup V mouse norovirus (MNV) using the mouse macrophage cell line RAW264.7. This assay evaluates the ability of the compounds to protect infected cells from the virus-induced cytopathic effect, thus being suitable to identify inhibition of virus replication at every step of the virus life cycle, and representing a robust cellular assay available for the rapid evaluation of potential norovirus inhibitors. Compounds identified using MNV have shown effects against HuNoV in vitro and in vivo, as in the case of nucleoside RdRp inhibitor 2′-C-methylcytidine (2CMC)[34]–[36]. Unfortunately, despite not presenting the aqueous solubility issues we had previously encountered for 1[29], no significant antiviral effect could be observed in this assay for the new compounds up to the maximum concentration tested. The new structural modifications, despite retaining inhibition of the RdRp in an isolated enzyme activity assay and showing no cytotoxic effects at the test concentrations in the MNV antiviral assay (Supplementary Table S1), are correlated with a lack of antiviral activity. As these new structures present the same limitation of most non-nucleoside HuNoV polymerase inhibitors reported so far[22], we were prompted to apply a different computer-aided strategy to further modify the scaffold of 1, with the aim to achieve an antiviral effect in cellular systems. […]
Since the main scope of this work was to find new norovirus inhibitors which show antiviral effects against both the HuNoV RdRp and in norovirus-infected cells, priority was given to the evaluation of most of the new molecules for their antiviral activity against MNV in infected RAW cells. The nucleoside 2′-C-methylcytidine was used as positive control. The test compounds were evaluated at eight different concentrations (range 0.6–100 µM) and their ability to reduce the virus-induced cytopathic effect was assessed.
Cells and virus: MNV (virus strain MNV-1.CW1) was propagated in RAW 264.7 cells grown in DMEM (Life Technologies, Gent, Belgium) supplemented with 10% or 2% FBS, 2 mM L-glutamine, 20 mM HEPES, 0.075 g/L sodium bicarbonate, 1 mM sodium pyruvate, 100 U penicillin/mL and 100 µg/mL streptomycin at 37 °C in a humidified atmosphere of 5% CO2. The human norovirus GI.1 replicon harboring gastric tumor-1 cell line (HGT-NV) (kindly provided by Dr. Ian Goodfellow, University of Cambridge) was maintained in DMEM supplemented with 10% FBS, 2mM L-glutamine, 0.075 g/L sodium bicarbonate and 1.0 mg/ml of Geneticin (G418; Life Technologies), at 37 °C in a humidified atmosphere of 5% CO2[34].
Antiviral assay with MNV: The antiviral activity of the Compounds was determined using an MTS [3-(4,5-dimethylthiazol-2-yl)-5-(3-carboxymethoxyphenyl)-2-(4-sulfophenyl)-2H-tetrazolium]-based cytopathic effect (CPE) reduction assay. […] Then, a MTS-phenazinemethosulfate (MTS/PMS) stock solution [(2 mg/mL MTS (Promega, Leiden, The Netherlands) and 46 µg/mL PMS (Sigma–Aldrich, Bornem, Belgium) in PBS at pH 6–6.5)] was diluted 1/20 in MEM (Life Technologies, Gent, Belgium) and 75 µL were added to each well. After 2 h, the optical density (OD) was read at 498 nm. The %CPE reduction was calculated as [(ODtreated)MNV − ODVC]/[ODCC − ODVC] × 100, where ODCC represents the OD of the uninfected untreated cells, whereas ODVC and (ODtreated)MNV represent the OD of infected untreated cells and virus-infected cells treated with a compound concentration, respectively. The 50% effective concentration (EC50) was defined as the compound concentration that protected 50% of the cells from virus-induced CPE[34].

HuNoV (GII.4) RdRp = HuNoV (GII.4) RdRp (Norovirus Hu/GII.4/Sydney/NSW0514/2012/AU, UniProt K4L8Z7); test: Quantitative fluorescent RdRp activity assay (PicoGreen, poly(C) template); assay type: biochemical, human norovirus Sydney 2012; conditions: for IC50: HuNoV (GII.4) RdRp activity, six concentrations 0.1–100 µM, mean ± SD; for inhibition at 20 µM: read-out: inhibition of HuNoV RdRp activity at fixed concentration
Method: The newly synthesised compounds, including the carboxylate ester derivatives 34–35 and 7 from the Core Hopping approach, were evaluated for their enzymatic inhibition of human norovirus Sydney 2012 (HuNoV (GII.4)) RdRp activity in vitro, using a quantitative fluorescent assay. Compounds were tested at six different concentrations (concentration range examined: 0.1–100 µM) and compared to the relative activity of mock treated samples containing the vehicle only (0.5% DMSO [vol/vol]). PPNDS [Pyridoxal-5′-phosphate-6-(2′-naphthylazo-6′-nitro-4′,8′-disulfonate) tetrasodium salt], a previously reported potent inhibitor of NoV RdRp activity, and 1 were used as positive controls. Dose-dependent inhibitory response curves were used to establish IC50 values for the eight test compounds, as reported in Table 1 (see also Supplementary Fig. S1).
The newly prepared compounds 48–60 were initially evaluated against norovirus Sydney 2012 RdRp activity in vitro using a quantitative fluorescent assay. Compounds were tested at a fixed concentration of 20 µM and compared to the relative activity of mock treated samples. PPNDS and 1 were used as positive controls. […] These two rings are structural features present in 1 and in one of its derivatives we have previously reported. […] From these observations, the thiophene ring appears not to influence inhibitory activity. Derivatives in which the central core of 48 has been used to link the two terminal hydrophobic rings of 1 or of its derivatives we have previously reported[25] (55, 57, 58) appear to retain the RdRp inhibitory activity found for 48 (~20% at 20 µM). A similar effect is obtained when a sulfonyl group, as in our hit 1, is used to link ring 2, regardless if it is a thiazole (59) or an unsubstituted phenyl ring (60), to the rest of the molecule. […] Overall, even if showing a reduced biochemical activity in comparison with 1, some of the new derivatives can be considered as modest HuNoV RdRp inhibitors at 20 µM.
Fluorescent RdRp activity assays were carried out as previously described[12],[29]. Briefly, RdRp activity was quantified by monitoring the formation of double-stranded RNA (dsRNA) from a single stranded homopolymeric template, poly(C) (Sigma Aldrich), using the fluorescent dye PicoGreen (Life Technologies, Carlsbad, CA, USA). RdRp assays were performed in 384-well plates, and each reaction mixture contained 400 ng enzyme, 45 μM GTP, 10 ng/μL poly(C) RNA, 2.5 mM MnCl2, 5 mM dithiothreitol, (DTT), 0.01% bovine serum albumin (BSA), and 0.005% Tween 20 in 20 mM Tris-HCl, pH 7.5, with a final reaction volume of 25 μL. The PPNDS and compound 1 were used as a positive controls. RdRps were incubated for 10 mins at 30 °C in the presence of the test compounds or the compound vehicle DMSO (0.5% vol/vol) before addition into the reaction mixture, which was then allowed to run 15 min at 30 °C then terminated with 10 mM EDTA, followed by PicoGreen staining and dsRNA quantitation. GraphPad Prism V6.05 (La Jolla, CA, USA) was used to plot the IC50 values. A secondary gel-based polymerase activity assay was used as a counter-screen as described below, to exclude the possibility of RdRp activity enhancement. Primed elongation activity was examined in a gel-based assay as previously described[12],[29] using the RNA template (PE44-NoV). Gels were imaged using BioRad (Hercules, CA, U.SA) Geldoc Universal Hood II, running BioRad Image Lab software, V4.1, build 16.

[2] = Supplementary Table S1, at least two independent experiments
[3] = Table 2, at least three independent experiments
[4] = Table 2, RAW 264.7, range 0.6–100 µM, at least three independent experiments

O=C1NN(c2ccccc2)C(=O)/C1=C/c1ccc(-c2ccc(S(=O)(=O)Nc3ncco3)cc2)o1 [Compound 5, (E)-4-(5-((3,5-dioxo-1-phenylpyrazolidin-4-ylidene)methyl)furan-2-yl)-N-(oxazol-2-yl)benzenesulfonamide]
CC50 at 3 days [1, 2]: > 100 µM
EC50 (MNV; [2]): > 100 µM
IC50 (HuNoV (GII.4) RdRp): 12.8 ± 2.6 µM

O=C(NC(=S)Nc1ccc(N2CCN(C(=O)c3ccccc3)CC2)cc1)c1sc2ccccc2c1Cl [Compound 54, N-((4-(4-Benzoylpiperazin-1-yl)phenyl)carbamothioyl)-3-chlorobenzo[b]thiophene-2-carboxamide]
CC50 at 3 days [1, 3]: 4.5 ± 0.7 µM
EC50 (MNV; [4]): > 100 µM
inhibition at 20 µM (HuNoV (GII.4) RdRp): ≤ 60%

C[C@@]1(O)[C@H](O)[C@@H](CO)O[C@H]1n1ccc(N)nc1=O [Compound 2CMC, 2′-C-methylcytidine, reference compound]
CC50 at 3 days [1, 3]: 16 ± 2 µM
EC50 (MNV; [4]): 2 ± 1 µM

O=C(NC(=S)Nc1ccc(N2CCN(C(=O)c3ccccc3)CC2)cc1)c1ccccc1 [Compound 55, N-((4-(4-Benzoylpiperazin-1-yl)phenyl)carbamothioyl)benzamide]
CC50 at 3 days [1, 3]: 61.9 µM
EC50 (MNV; [4]): > 100 µM
inhibition at 20 µM (HuNoV (GII.4) RdRp): ~20%

O=C1NN(c2ccccc2)C(=O)/C1=C/c1ccc(-c2ccc(S(=O)(=O)Nc3ncccn3)cc2)o1 [Compound 4, (E)-4-(5-((3,5-dioxo-1-phenylpyrazolidin-4-ylidene)methyl)furan-2-yl)-N-(pyrimidin-2-yl)benzenesulfonamide]
CC50 at 3 days [1, 2]: 60 ± 21 µM
EC50 (MNV; [2]): > 50 µM
inhibition at 100 µM (HuNoV (GII.4) RdRp; 100 µM, read-out: inhibition of RdRp activity at the maximum concentration tested): 15%

O=C(NC(=S)Nc1ccc(N2CCN(C(=O)c3cccs3)CC2)cc1)c1cc2ccccc2s1 [Compound 49, N-((4-(4-(Thiophene-2-carbonyl)piperazin-1-yl)phenyl)carbamothioyl)benzo[b]thiophene-2-carboxamide]
CC50 at 3 days [1, 3]: > 100 µM
EC50 (MNV; [4]): > 100 µM
inhibition at 20 µM (HuNoV (GII.4) RdRp): 15 to 20%

O=C1NN(c2cccc(C(=O)O)c2)C(=O)/C1=C/c1ccc(-c2ccc(S(=O)(=O)Nc3ccccc3)cc2)o1 [Compound 3, (E)-3-(3,5-dioxo-4-((5-(4-(N-phenylsulfamoyl)phenyl)furan-2-yl)methylene)pyrazolidin-1-yl)benzoic acid]
CC50 at 3 days [1, 2]: > 100 µM
EC50 (MNV; [2]): > 100 µM
IC50 (HuNoV (GII.4) RdRp): 22.5 ± 6.5 µM

O=C(NC(=S)Nc1ccc(N2CCN(C(=O)c3nccs3)CC2)cc1)c1ccccc1 [Compound 58, N-((4-(4-(Thiazole-2-carbonyl)piperazin-1-yl)phenyl)carbamothioyl)benzamide]
inhibition at 20 µM (HuNoV (GII.4) RdRp): ~20%

O=C(NC(=S)Nc1ccc(N2CCN(C(=O)c3cccs3)CC2)cc1)c1sc2ccccc2c1C(F)(F)F [Compound 50, N-((4-(4-(Thiophene-2-carbonyl)piperazin-1-yl)phenyl)carbamothioyl)-3-(trifluoromethyl)benzo[b] thiophene-2-carboxamide]
inhibition at 20 µM (HuNoV (GII.4) RdRp): 15 to 20%

O=C1NN(c2ccc(C(=O)O)cc2)C(=O)/C1=C/c1ccc(-c2ccc(S(=O)(=O)Nc3ccccc3)cc2)o1 [Compound 2, (E)-4-(3,5-dioxo-4-((5-(4-(N-phenylsulfamoyl)phenyl)furan-2-yl)methylene)pyrazolidin-1-yl)benzoic acid]
CC50 at 3 days [1, 2]: > 100 µM
EC50 (MNV; [2]): > 100 µM
IC50 (HuNoV (GII.4) RdRp): 17.2 ± 2.4 µM

O=C(NC(=S)Nc1ccc(N2CCN(C(=O)c3cccs3)CC2)cc1)c1ccccc1 [Compound 51, N-((4-(4-(Thiophene-2-carbonyl)piperazin-1-yl)phenyl)carbamothioyl)benzamide]
inhibition at 20 µM (HuNoV (GII.4) RdRp): ~15%

CCOC(=O)c1cccc(N2NC(=O)/C(=C\c3ccc(-c4ccc(S(=O)(=O)Nc5ccccc5)cc4)o3)C2=O)c1 [Compound 35, Ethyl(E)-3-(3,5-dioxo-4-((5-(4-(N-phenylsulfamoyl)phenyl)furan-2-yl)methylene)pyrazolidin-1-yl)benzoate]
CC50 at 3 days [1, 2]: > 100 µM
EC50 (MNV; [2]): > 100 µM
IC50 (HuNoV (GII.4) RdRp): 18.9 ± 3.1 µM

O=C(Nc1ccc(N2CCN(C(=O)c3cccs3)CC2)cc1)c1ccccc1 [Compound 73, N-(4-(4-(thiophene-2-carbonyl)piperazin-1-yl)phenyl)benzamide]
inhibition at 20 µM (HuNoV (GII.4) RdRp): ~40%

Cc1ccc(C(=O)NC(=S)Nc2ccc(N3CCN(C(=O)c4ccccc4)CC3)cc2)cc1 [Compound 57, N-((4-(4-Benzoylpiperazin-1-yl)phenyl)carbamothioyl)-4-methylbenzamide]
CC50 at 3 days [1, 3]: > 100 µM
EC50 (MNV; [4]): > 100 µM
inhibition at 20 µM (HuNoV (GII.4) RdRp): ~20%
